Test results published in patent US20140045823A1 (Neurocrine Biosciences, Inc., priority 2012, published 2014).

What follows are molecules tested against T1, human GPR119 (Homo sapiens, UniProt Q8TDV5) (assay: AlphaScreen cAMP assay in MIN6 cells stably transfected with human GPR119). Details: Min-6/hGPR119 cells, 45 min at room temperature.
T1 construct: expression vector for human GPR119 cDNA (Acc. No. NP_848566); expressed in transfected cells; Min-6/hGPR119
T1 sequence (Q8TDV5 1-335): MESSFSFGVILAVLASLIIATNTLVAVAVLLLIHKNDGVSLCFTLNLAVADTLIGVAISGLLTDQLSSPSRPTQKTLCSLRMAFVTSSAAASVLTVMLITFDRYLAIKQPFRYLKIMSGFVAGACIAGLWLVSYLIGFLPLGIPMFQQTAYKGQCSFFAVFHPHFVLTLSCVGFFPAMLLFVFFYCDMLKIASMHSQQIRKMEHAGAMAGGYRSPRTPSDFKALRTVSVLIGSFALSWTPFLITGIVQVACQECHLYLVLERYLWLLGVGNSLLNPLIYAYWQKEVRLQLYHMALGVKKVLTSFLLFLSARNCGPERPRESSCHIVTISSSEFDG
Assay type: cell-based
Summary of the method: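 cAMP accumulation quantified by AlphaScreen after 45 min compound stimulation at about 20 °C. Stimulation buffer: pH 7.4 HEPES saline with 0.5 mM IBMX, 0.1% BSA, 1% DMSO final. Cells: MIN6 stably transfected with human GPR119, 10000/well, cultured 24 h beforehand.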

| Structure (SMILES) | EC50 |
| --- | --- |
| CC(C)(C)OC(=O)N1CCC(N(C(=O)c2cnc(-c3ccc(C(=O)NC[C@H]4CCCC[C@H]4O)c(F)c3)nc2)C2CC2)CC1 (stereo in doubt) [Example 168, 4-[Cyclopropyl-(2-{3-fluoro-4-[(2-hydroxy-cyclohexylmethyl)-carbamoyl]-phenyl}-pyrimidine-5-carbonyl)-amino]-piperidine-1-carboxylic acid tert-butyl ester] | 261 nM |
| CC(C)(C)OC(=O)N1CCC(N(C(=O)c2ncc(-c3ccc(CC#N)cc3)cn2)C2CC2)CC1 [Example 67] | 219 nM |
| CC(C)(C)OC(=O)N1CCC(N(C(=O)c2cnc(-c3cccnc3)nc2)C2CC2)CC1 [Example 70, 4-[Cyclopropyl-(2-pyridin-3-yl-pyrimidine-5-carbonyl)-amino]-piperidine-1-carboxylic acid tert-butyl ester] | 489 nM |
| CC(C)(C)OC(=O)N1CCC(N(C(=O)c2ncc(-c3ccc(C#N)nc3)cn2)C2CC2)CC1 [Example 69, 4-{[5-(6-Cyano-pyridin-3-yl)-pyrimidine-2-carbonyl]-cyclopropyl-amino}-piperidine-1-carboxylic acid tert-butyl ester] | 1120 nM |
| CC(C)(C)OC(=O)N1CCC(N(C(=O)c2cc(-c3ccc(C#N)cc3)on2)C2CC2)CC1 [Example 38, 4-{-[5-(4-Cyano-phenyl)-isoxazole-3-carbonyl]-cyclopropyl-amino}-piperidine-1-carboxylic acid tert-butyl ester] | 9 nM |
| CC(C)(C)OC(=O)N1CCC(N(C(=O)c2cnc(-c3ccc(CC(=O)NCC4CCCCO4)cc3)nc2)C2CC2)CC1 (stereo not drawn) [Example 219, 4-{Cyclopropyl-[2-(4-{[(tetrahydro-pyran-2-ylmethyl)-carbamoyl]-methyl}-phenyl)-pyrimidine-5-carbonyl]-amino}-piperidine-1-carboxylic acid tert-butyl ester] | 375 nM |
| CCNC(=O)c1ccc(-c2nc(C(=O)N(C3CC3)C3CCN(C(=O)OC(C)(C)C)CC3)co2)cc1 [Example 26, 4-{Cyclopropyl-[2-(4-ethylcarbamoyl-phenyl)-oxazole-4-carbonyl]-amino}-piperidine-1-carboxylic acid tert-butyl ester] | 360 nM |
| CC(C)(C)OC(=O)N1CCC(N(C(=O)c2cnc(-c3ccc(CC(=O)N4CCCOCC4)cc3)nc2)C2CC2)CC1 [Example 192, 4-(Cyclopropyl-{2-[4-(2-[1,4]oxazepan-4-yl-2-oxo-ethyl)-phenyl]-pyrimidine-5-carbonyl}-amino)-piperidine-1-carboxylic acid tert-butyl ester] | 421 nM |
| CC(C)(C)OC(=O)N1CCC(N(C(=O)c2cnc(-c3ccc(S(C)(=O)=O)cc3F)o2)C2CC2)CC1 [Example 30, 4-{Cyclopropyl-[2-(2-fluoro-4-methanesulfonyl-phenyl)-oxazole-5-carbonyl]-amino}-piperidine-1-carboxylic acid tert-butyl ester] | 176 nM |
| CC(C)(C)OC(=O)N1CCC(N(C(=O)c2ncc(-c3ccc(S(C)(=O)=O)cc3)o2)C2CC2)CC1 [Example 36, 4-{Cyclopropyl-[5-(4-methanesulfonyl-phenyl)-oxazole-2-carbonyl]-amino}-piperidine-1-carboxylic acid tert-butyl ester] | 358 nM |
| Cc1c(C(=O)N(C2CC2)C2CCN(C(=O)OC(C)(C)C)CC2)noc1-c1ccc(C#N)c(F)c1 [Example 45, 4-{[5-(4-Cyano-3-fluoro-phenyl)-4-methyl-isoxazole-3-carbonyl]-cyclopropyl-amino}-piperidine-1-carboxylic acid tert-butyl ester] | 25 nM |
| CC(C)(C)OC(=O)N1CCC(N(C(=O)c2cnc(-c3ccc(C(=O)N4CCCC(O)C4)cc3)nc2)C2CC2)CC1 (stereo not drawn) [Example 190, 4-(Cyclopropyl-{2-[4-(3-hydroxy-piperidine-1-carbonyl)-phenyl]-pyrimidine-5-carbonyl}-amino)-piperidine-1-carboxylic acid tert-buyl ester] | 820 nM |
| CC(C)(C)OC(=O)N1CCC(N(C(=O)c2cnc(-c3ccc(C(=O)NCc4cncnc4)c(F)c3)nc2)C2CC2)CC1 [Example 162, 4-[Cyclopropyl-(2-{3-fluoro-4-[(pyrimidin-5-ylmethyl)-carbamoyl]-phenyl}-pyrimidine-5-carbonyl)-amino]-piperidine-1-carboxylic acid tert-butyl ester] | 501 nM |
| COCC(C)N(C)C(=O)c1ccc(-c2ncc(C(=O)N(C3CC3)C3CCN(C(=O)OC(C)(C)C)CC3)cn2)cc1F (stereo not drawn) [Example 106, 4-[Cyclopropyl-(2-{3-fluoro-4-[(2-methoxy-1-methyl-ethyl)-methyl-carbamoyl]-phenyl}-pyrimidine-5-carbonyl)-amino]-piperidine-1-carboxylic acid tert-butyl ester] | 253 nM |
| Cc1nc(-c2ccc(C#N)cc2F)sc1C(=O)N(C1CC1)C1CCN(C(=O)OC(C)(C)C)CC1 [Example 48, 4-{[2-(4-Cyano-2-fluoro-phenyl)-4-methyl-thiazole-5-carbonyl]-cyclopropyl-amino}-piperidine-1-carboxylic acid tert-butyl ester] | 1340 nM |
| CC(C)(C)OC(=O)N1CCC(N(C(=O)c2cnc(-c3ccc(C(=O)NCC4CCOCC4)c(F)c3)nc2)C2CC2)CC1 [Example 128, 4-[Cyclopropyl-(2-{3-fluoro-4-[(tetrahydro-pyran-4-ylmethyl)-carbamoyl]-phenyl}-pyrimidine-5-carbonyl)-amino]-piperidine-1-carboxylic acid tert-butyl ester] | 156 nM |
| CC(C)(C)OC(=O)N1CCC(N(C(=O)c2noc(-c3ccc(C#N)cc3F)n2)C2CC2)CC1 [Example 18, 4-{[5-(4-Cyano-2-fluoro-phenyl)-[1,2,4]oxadiazole-3-carbonyl]-cyclopropyl-amino}-piperidine-1-carboxylic acid tert-butyl ester] | 5 nM |
| COCCNC(=O)c1ccc(-c2ncc(C(=O)N(C3CC3)C3CCN(C(=O)OC(C)(C)C)CC3)cn2)cc1 [Example 243, 4-(Cyclopropyl-{2-[4-(2-methoxy-ethylcarbamoyl)-phenyl]-pyrimidine-5-carbonyl}-amino)-piperidine-1-carboxylic acid tert-butyl ester] | 309 nM |
| CC(C)(C)OC(=O)N1CCC(N(C(=O)c2csc(-c3ccc(C#N)cc3)n2)C2CC2)CC1 [Example 47, 4-{[2-(4-Cyano-phenyl)-thiazole-4-carbonyl]-cyclopropyl-amino}-piperidine-1-carboxylic acid tert-butyl ester] | 1860 nM |
| CC(C)(C)OC(=O)N1CCC(N(C(=O)c2cnc(-c3ccc(C(=O)NC4CCOCC4)cc3F)nc2)C2CC2)CC1 [Example 145, 4-(Cyclopropyl-{2-[2-fluoro-4-(tetrahydro-pyran-4-ylcarbamoyl)-phenyl]-pyrimidine-5-carbonyl}-amino)-piperidine-1-carboxylic acid tert-buyl ester] | 1000 nM |
| CC(C)(C)OC(=O)N1CCC(N(C(=O)c2nc(-c3ccc(Br)cc3F)no2)C2CC2)CC1 [Example 22, 4-{[3-(4-Bromo-2-fluoro-phenyl)-[1,2,4]oxadiazole-5-carbonyl]-cyclopropyl-amino}-piperidine-1-carboxylic acid tert-butyl ester] | 210 nM |
| CC(C)(C)OC(=O)N1CCC(N(C(=O)c2cnc(-c3ccc(C(=O)Nc4ccc(O)cc4)c(F)c3)nc2)C2CC2)CC1 [Example 116, 4-(Cyclopropyl-{2-[3-fluoro-4-(4-hydroxy-phenylcarbamoyl)-phenyl]-pyrimidine-5-carbonyl}-amino)-piperidine-1-carboxylic acid tert-butyl ester] | 445 nM |
| CC(C)(C)OC(=O)N1CCC(N(C(=O)c2cnc(-c3ccc(C(=O)NCC4CCCCO4)c(F)c3)nc2)C2CC2)CC1 (stereo not drawn) [Example 152, 4-[Cyclopropyl-(2-{3-fluoro-4-[(tetrahydro-pyran-2-ylmethyl)-carbamoyl]-phenyl}-pyrimidine-5-carbonyl)-amino]-piperidine-1-carboxylic acid tert-butyl ester] | 109 nM |
| CC(C)(C)OC(=O)N1CCC(N(C(=O)c2cnc(-c3ccc(C(=O)N4CCC[C@@H]4C#N)c(F)c3)nc2)C2CC2)CC1 [Example 161, 4-({2-[4-(2-Cyano-pyrrolidine-1-carbonyl)-3-fluoro-phenyl]-pyrimidine-5-carbonyl}-cyclopropyl-amino)-piperidine-1-carboxylic acid tert-butyl ester] | 278 nM |
| CC(C)(C)OC(=O)N1CCC(N(C(=O)c2cnc(-c3ccc(CC(=O)N4CCC[C@@H]4C#N)cc3)nc2)C2CC2)CC1 [Example 211, 4-[(2-{4-[2-(2-Cyano-pyrrolidin-1-yl)-2-oxo-ethyl]-phenyl}-pyrimidine-5-carbonyl)-cyclopropyl-amino]-piperidine-1-carboxylic acid tert-butyl ester] | 561 nM |
| CC(C)(C)OC(=O)N1CCC(N(C(=O)c2cnc(-c3ccc(CO)cc3)nc2)C2CC2)CC1 [Example 81, 4-{Cyclopropyl-[2-(4-hydroxymethyl-phenyl)-pyrimidine-5-carbonyl]-amino}-piperidine-1-carboxylic acid tert-butyl ester] | 98 nM |
| CC(C)(C)OC(=O)N1CCC(N(C(=O)c2ccc(-c3cn[nH]c3)nc2)C2CC2)CC1 [Example 3, 4-{Cyclopropyl-[6-(1H-pyrazol-4-yl)-pyridine-3-carbonyl]-amino}-piperidine-1-carboxylic acid tert-butyl ester] | 204 nM |
